Data on six compounds can be found in patent US9695209B2, “Synthesis of amphiphilic calixarene glycoside detergents and use of same for extracting and stabilizing native functional membrane proteins” (CALIXAR, priority 2014, dated 2017).

Where two headings read alike, the source gives them in different places.

The nature of data set [1]: Average particle size of aggregates by DLS (Dynamic Light Scattering). It is filed as physicochemical. Here is the method: FIGS. 3a) and 3b) are two diagrams showing the average particle size obtained by DLS (Dynamic Light Scattering) analysis of CALX173GALO compound (FIG. 3a) and CALX173GLUK compound (FIG. 3b) at respectively 0.47 and 0.08 mM.
FIGS. 3a and 3b show the aggregation state of CALX173GALO and CALX173GLUK. As illustrated, all the systems observed form aggregates of the micellar type.

The next data set concerns the target A2A adenosine protein (Homo sapiens, UniProt P29274). Put plainly: Test of solubilization of A2A membrane protein (Western Blot after 100 000 g centrifugation). The conditions noted are these: for solubility (solubilization) of A2A adenosine protein: 4° C, protein 20 mg/ml. Here is the method:
Solubility Test of Protein of Interest: A2A Adenosine.
The protein content was set at 20 mg/ml (20 mM Tris-Cl pH 8.0, 150 mM NaCl, 10% Glycerol). The solubilization is effected at 4° C. The solubilized or non-solubilized protein fractions are separated by a 100 000 g centrifugation step for 1 hour at 4° C.

In data set [2] the target is T1, Bacteriorhodopsin protein (bR) (Halobacterium salinarum, UniProt P02945).
T1 sequence (P02945 14-262): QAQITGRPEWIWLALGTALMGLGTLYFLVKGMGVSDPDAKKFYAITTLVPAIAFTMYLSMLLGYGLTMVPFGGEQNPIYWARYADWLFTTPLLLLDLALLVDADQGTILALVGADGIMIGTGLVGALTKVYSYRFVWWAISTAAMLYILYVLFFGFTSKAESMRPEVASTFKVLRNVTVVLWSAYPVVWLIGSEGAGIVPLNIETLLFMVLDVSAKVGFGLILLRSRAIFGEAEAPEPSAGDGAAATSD
Put plainly: Stability test of bacteriorhodopsin protein over time (absorbance at 550 nm). The conditions noted are these: after 1 month and a half exposure at 37° C. in the dark.

The conditions of data set [3]: from VanAken et al. 1986; cited from earlier work.
The nature of data set [4]: CMC (H2O) of known detergents as stated in figure legend. The conditions noted are these: no source given. It is filed as physicochemical.

Sequence of A2A adenosine protein (P29274 whole entry): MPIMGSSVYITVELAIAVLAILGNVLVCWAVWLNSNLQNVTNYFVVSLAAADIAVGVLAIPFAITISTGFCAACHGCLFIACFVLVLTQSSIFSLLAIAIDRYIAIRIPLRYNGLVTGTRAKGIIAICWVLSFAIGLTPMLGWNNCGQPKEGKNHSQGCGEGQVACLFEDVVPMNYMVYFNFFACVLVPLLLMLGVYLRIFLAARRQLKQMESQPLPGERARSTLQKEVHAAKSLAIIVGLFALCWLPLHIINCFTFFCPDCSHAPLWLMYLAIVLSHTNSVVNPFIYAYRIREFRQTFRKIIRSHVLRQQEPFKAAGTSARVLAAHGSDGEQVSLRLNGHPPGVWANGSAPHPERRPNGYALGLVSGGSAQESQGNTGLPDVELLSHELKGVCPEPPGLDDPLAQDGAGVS

For “5,11,17-Tris{2-[4-(b-D-glucopyranosyl)-1H-1,2,3-triazol-1-yl]-ethyl}-25-heptoxy-26,27,28-trismethoxy-calix[4]arene [CALX173GLUK]”, the “dparticules (average particle size by DLS)” value in data set [1] (at 0.08 mM) is recorded as 5.53 nm. For the same compound, the entries for the “solubility (solubilization) of A2A adenosine protein” value (“solubility (solubilization)” below) at A2A adenosine protein (detergent at 8 CMC) and at A2A adenosine protein (detergent at 20 CMC) were “nonexistent” and “enhances the solubilization”, respectively. Moreover, the “absorbance at 550 nm of bR protein” value in data set [2] is recorded as 0.75.
With `CCCCCCCCO[C@@H]1O[C@H](CO)[C@@H](O)[C@H](O)[C@H]1O` [OG, Octyl Glucoside, reference compound], in data set [2], the “stability of the bR protein” value is reported as “nonexistent”.
As for `CCCCCCCCCCCCO[C@@H]1O[C@H](CO)[C@@H](O[C@H]2O[C@H](CO)[C@@H](O)[C@H](O)[C@H]2O)[C@H](O)[C@H]1O` [DDM, n-dodecyl-β-D-maltopyranoside, reference compound], the “solubilization of A2A protein” value at A2A adenosine protein (20 CMC, reference compounds) is reported as “about 20%”. Moreover, at A2A adenosine protein (detergent at 20 CMC), the “solubility (solubilization)” value is “partial”. Also, in data set [3], the “CMC (H2O)” value was 0.17 mM.
With `CCCCCCCOc1c2cccc1Cc1cc(CCO[C@@H]3O[C@H](CO)[C@H](O)[C@H](O)[C@H]3O)cc(c1OC)Cc1cc(CCO[C@@H]3O[C@H](CO)[C@H](O)[C@H](O)[C@H]3O)cc(c1OC)Cc1cc(CCO[C@@H]3O[C@H](CO)[C@H](O)[C@H](O)[C@H]3O)cc(c1OC)C2` [CALX173GALO, 5,11,17-Tris[2-(b-D-galactopyranosyloxy)ethyl]-25-heptoxy-26,27,28-trismethoxy-calix[4]arene], the “dparticules (average particle size by DLS)” value in data set [1] (at 0.47 mM) is 5.46 nm. Moreover, the “solubilization of A2A protein compared with reference compounds DDM and CALX173ACE” value at A2A adenosine protein (20 CMC) is “better”. Moreover, the “solubility (solubilization)” value on A2A adenosine protein (detergent at 20 CMC) is “partial”. Further, the “absorbance at 550 nm of bR protein” value in data set [2] is recorded as “around 0.4”.
“25-heptyloxy-26,27,28-tris(hydroxyl)calix-[4]-arene-5,11,17-tris(acetic acid) sodium salt [CALX173ACE]”: the “CMC (H2O)” value in data set [4] is 2.5 mM.
Turning to “Maltose-Neopentyl Glycol [MNG-12, reference compound]”, the “absorbance at 550 nm of bR protein” value in data set [2] is “around 0.4”.
